One data set has as its target T1, VEGFR3 (Homo sapiens, UniProt P35916).
T1 construct: purchased Invitrogen PV4129
The data set is described as follows: Kinase inhibition, Mobility Shift Assay/IMAP, VEGFR3. Type of data set: biochemical. An excerpt:
(§1) This assay directly monitored the ability of compounds to inhibit kinase phosphorylation by measuring non-phosphorylated and phosphorylated substrates in kinase reactions by using Mobility Shift Assays/IMAP™ analysis.
(§2) Read the conversion ratio data on CaliperEZ Reader II. Convert conversion rates into inhibition ratio data.
(§3) “Min” indicates the readout of the control well without the addition of enzymes; and “Max” indicates the readout of the control well with the addition of DMSO Fit IC50 values with XL Fit excel add-in version […].
(§4) X indicates the log value of compound concentration, and Y indicates the inhibition ratio (% inhibition).

In a further data set the target is T2, VEGFR1 (Homo sapiens, UniProt P17948).
T2 construct: purchased Invitrogen PR6731B
T2 sequence (P17948 27-1338): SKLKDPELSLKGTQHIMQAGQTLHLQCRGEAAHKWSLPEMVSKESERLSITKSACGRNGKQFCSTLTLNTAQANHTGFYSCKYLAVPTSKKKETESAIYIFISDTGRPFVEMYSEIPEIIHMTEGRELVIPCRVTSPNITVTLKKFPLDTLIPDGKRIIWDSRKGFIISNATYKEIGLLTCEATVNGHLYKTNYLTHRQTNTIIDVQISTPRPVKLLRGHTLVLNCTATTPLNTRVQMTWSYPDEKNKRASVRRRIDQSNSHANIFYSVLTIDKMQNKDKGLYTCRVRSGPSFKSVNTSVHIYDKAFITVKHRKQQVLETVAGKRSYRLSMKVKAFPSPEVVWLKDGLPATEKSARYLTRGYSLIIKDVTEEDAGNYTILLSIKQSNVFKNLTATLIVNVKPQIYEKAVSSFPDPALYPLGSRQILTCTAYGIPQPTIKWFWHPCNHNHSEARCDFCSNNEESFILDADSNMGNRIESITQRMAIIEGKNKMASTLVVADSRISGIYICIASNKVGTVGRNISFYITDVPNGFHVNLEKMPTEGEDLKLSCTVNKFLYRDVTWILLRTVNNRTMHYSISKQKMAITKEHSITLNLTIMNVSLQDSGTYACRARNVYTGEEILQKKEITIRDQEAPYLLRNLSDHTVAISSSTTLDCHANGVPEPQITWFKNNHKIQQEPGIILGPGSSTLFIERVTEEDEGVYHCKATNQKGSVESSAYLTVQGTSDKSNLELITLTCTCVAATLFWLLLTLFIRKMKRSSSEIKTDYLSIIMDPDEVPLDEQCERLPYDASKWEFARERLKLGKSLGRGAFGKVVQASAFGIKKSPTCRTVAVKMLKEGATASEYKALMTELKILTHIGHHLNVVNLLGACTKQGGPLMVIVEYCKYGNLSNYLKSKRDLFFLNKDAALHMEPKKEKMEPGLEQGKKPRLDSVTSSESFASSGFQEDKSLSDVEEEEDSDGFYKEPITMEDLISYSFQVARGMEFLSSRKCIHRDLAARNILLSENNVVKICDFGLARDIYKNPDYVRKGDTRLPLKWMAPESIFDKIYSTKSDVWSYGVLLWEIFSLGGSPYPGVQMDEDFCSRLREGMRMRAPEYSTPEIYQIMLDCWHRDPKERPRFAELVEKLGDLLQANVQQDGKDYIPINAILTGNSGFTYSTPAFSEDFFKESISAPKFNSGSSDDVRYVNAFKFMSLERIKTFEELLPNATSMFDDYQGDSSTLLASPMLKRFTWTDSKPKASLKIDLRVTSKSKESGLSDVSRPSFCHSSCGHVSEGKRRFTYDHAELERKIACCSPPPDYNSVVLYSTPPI
The data set is described as follows: Kinase inhibition, Mobility Shift Assay/IMAP, VEGFR1. Type of data set: biochemical.
From the text: as §1, §2, §3, §4

In a further data set the target is VEGFR2 (Homo sapiens, UniProt P35968). The data set is described as follows: Kinase inhibition, Mobility Shift Assay/IMAP, VEGFR2. Type of data set: biochemical. Also noted: purchased Carna 08-191. The gist of the method: (§5)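 Substrate conversion (phosphorylated vs non-phosphorylated) read by mobility shift on Caliper EZ Reader II and converted to % inhibition relative to no-enzyme and DMSO controls. IC50 fitted from % inhibition versus log compound concentration.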
Chain of VEGFR2 (P35968 790-1356 limits assumed): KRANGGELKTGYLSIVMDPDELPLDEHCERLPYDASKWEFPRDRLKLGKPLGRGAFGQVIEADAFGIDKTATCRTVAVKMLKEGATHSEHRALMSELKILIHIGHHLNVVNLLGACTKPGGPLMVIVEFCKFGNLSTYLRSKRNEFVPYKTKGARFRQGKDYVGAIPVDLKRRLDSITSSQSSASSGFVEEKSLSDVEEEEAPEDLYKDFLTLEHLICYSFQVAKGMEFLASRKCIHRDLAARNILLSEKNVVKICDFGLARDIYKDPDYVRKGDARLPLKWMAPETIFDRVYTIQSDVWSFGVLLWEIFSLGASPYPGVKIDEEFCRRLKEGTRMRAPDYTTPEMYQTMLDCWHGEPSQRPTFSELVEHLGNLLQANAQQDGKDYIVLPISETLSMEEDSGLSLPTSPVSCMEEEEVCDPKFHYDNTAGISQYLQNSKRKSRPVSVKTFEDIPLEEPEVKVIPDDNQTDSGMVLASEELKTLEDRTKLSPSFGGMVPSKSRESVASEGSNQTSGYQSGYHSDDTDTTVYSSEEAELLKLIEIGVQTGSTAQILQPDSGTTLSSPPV

The next data set deals with T3, TIE2 (Homo sapiens, UniProt Q02763).
T3 construct: purchased BPS 40270
T3 sequence (Q02763 23-1124): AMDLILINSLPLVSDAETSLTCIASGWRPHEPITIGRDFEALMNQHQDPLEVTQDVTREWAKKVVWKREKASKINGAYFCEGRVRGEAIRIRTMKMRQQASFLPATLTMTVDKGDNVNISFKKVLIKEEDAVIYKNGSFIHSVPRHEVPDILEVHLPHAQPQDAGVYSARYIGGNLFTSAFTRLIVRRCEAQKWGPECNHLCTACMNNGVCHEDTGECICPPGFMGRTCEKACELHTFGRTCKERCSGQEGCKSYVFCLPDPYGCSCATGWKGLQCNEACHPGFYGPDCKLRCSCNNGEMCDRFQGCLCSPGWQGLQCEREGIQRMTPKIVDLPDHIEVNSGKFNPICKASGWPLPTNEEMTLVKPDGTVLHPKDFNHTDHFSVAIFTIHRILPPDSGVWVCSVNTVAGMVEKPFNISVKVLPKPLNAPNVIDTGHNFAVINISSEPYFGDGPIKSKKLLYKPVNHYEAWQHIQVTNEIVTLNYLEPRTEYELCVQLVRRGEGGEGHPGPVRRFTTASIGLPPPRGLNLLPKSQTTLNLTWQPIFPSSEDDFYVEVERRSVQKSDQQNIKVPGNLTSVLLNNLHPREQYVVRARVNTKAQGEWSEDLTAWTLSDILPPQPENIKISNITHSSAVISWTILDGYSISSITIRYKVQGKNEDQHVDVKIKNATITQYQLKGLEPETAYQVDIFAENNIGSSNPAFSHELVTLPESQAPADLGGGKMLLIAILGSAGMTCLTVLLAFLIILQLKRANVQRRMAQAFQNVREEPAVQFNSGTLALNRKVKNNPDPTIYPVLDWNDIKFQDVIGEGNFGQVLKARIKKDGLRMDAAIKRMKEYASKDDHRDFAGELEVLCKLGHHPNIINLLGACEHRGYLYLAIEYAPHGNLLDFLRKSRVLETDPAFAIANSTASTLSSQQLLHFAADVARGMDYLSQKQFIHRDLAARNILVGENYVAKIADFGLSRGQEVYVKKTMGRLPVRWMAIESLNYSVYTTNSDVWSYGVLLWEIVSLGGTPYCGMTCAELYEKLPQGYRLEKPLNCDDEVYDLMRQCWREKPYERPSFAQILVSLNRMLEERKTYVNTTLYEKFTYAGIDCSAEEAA
The data set is described as follows: Kinase inhibition, Mobility Shift Assay/IMAP, TIE2. Type of data set: biochemical.
From the text: as §1, §2, §3, §4

A further data set concerns melanin. Description: Binding capacity of compounds to melanin. Type of data set: in vitro ADME, cuttlefish (Sepia officinalis). The following applies: cuttlefish (Sepia officinalis), melanin suspension (1 mg/mL); 1 mg/mL melanin in PBS pH 7.4, 2 μM compound, 2 h at 37° C.; read-out: Fu % (percentage of free drug). The procedure, abridged:
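Compound (2 μM final) incubated with washed Sepia melanin (1 mg/mL, PBS pH 7.4) 2 h at 37° C with shaking; PBS with 0.1% BSA served as blank. Supernatants quantified by LC-MS/MS; bound fraction Fb derived from melanin versus blank concentration.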

A further data set addresses T4, EGFR (Homo sapiens, UniProt P00533).
T4 construct: purchased Carna 08-115
Description: Kinase inhibition, Mobility Shift Assay/IMAP, EGFR. Type of data set: biochemical. The procedure, abridged: as §5

T1 sequence (P35916 25-1363): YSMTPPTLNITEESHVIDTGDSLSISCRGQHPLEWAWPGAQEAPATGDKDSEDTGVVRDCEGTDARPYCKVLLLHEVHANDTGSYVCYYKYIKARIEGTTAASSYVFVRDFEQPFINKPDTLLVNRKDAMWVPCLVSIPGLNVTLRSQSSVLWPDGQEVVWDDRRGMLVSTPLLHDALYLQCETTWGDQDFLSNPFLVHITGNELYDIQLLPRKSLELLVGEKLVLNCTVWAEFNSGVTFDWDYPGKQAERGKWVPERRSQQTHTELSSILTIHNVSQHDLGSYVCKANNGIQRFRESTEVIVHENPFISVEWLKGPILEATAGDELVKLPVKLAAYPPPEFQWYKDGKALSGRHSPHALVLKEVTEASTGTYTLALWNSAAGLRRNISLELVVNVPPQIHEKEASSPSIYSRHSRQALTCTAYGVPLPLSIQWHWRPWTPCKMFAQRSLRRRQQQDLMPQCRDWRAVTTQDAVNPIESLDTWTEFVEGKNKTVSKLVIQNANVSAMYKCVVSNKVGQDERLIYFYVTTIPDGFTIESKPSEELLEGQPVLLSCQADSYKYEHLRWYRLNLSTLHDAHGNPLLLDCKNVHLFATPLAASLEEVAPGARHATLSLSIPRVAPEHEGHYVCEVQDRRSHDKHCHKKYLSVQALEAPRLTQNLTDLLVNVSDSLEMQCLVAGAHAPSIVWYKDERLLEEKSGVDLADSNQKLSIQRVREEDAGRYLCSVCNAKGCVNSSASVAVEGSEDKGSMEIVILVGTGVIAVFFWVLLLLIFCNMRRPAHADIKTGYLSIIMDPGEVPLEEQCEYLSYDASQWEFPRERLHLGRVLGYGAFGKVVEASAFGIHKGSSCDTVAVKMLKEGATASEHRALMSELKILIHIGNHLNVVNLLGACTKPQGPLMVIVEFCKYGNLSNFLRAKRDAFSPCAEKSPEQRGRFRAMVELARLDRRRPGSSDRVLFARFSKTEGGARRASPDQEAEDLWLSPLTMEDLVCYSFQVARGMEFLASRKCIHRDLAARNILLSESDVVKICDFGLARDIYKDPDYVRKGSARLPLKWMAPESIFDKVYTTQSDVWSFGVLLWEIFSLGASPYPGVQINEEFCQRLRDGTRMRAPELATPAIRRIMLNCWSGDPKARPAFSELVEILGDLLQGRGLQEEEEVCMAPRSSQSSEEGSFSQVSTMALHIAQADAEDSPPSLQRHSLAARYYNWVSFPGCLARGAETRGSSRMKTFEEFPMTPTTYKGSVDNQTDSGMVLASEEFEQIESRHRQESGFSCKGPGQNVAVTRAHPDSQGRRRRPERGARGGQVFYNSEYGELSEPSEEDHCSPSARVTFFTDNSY
T4 sequence (P00533 669-1210 limits assumed): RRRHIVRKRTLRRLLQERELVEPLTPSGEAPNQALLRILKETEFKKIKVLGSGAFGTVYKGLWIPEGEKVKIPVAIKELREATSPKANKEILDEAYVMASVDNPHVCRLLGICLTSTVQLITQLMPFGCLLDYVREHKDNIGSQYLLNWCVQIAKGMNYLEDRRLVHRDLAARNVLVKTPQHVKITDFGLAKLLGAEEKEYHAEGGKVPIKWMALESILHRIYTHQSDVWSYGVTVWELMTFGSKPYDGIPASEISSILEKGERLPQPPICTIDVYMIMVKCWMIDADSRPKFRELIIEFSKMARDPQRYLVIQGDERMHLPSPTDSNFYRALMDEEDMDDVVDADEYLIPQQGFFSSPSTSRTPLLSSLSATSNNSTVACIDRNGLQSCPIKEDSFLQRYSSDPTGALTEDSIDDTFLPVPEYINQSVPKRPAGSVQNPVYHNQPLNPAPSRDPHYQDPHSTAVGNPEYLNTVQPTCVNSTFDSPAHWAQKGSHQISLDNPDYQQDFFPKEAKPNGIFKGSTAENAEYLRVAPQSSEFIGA

Take `NC(=O)c1c(OCc2c(F)cc(Br)cc2F)nsc1Nc1cnn(CCN2CCNCC2)c1` [Compound T050, 3-((4-bromo-2,6-difluorobenzyl)oxy)-5-((1-(2-(piperazin-1-yl)ethyl)-1H-pyrazol-4-yl)amino)isothiazole-4-carboxamide]: the IC50 at VEGFR3 stood at 0.0161 µM; on VEGFR1 it was 0.00608 µM; at VEGFR2, 0.00368 µM.
On the same counts, the results for `CN(C)CCCn1ncc(Nc2snc(OCc3c(F)cc(Br)cc3F)c2C(N)=O)n1` [Compound T052, 3-((4-bromo-2,6-difluorobenzyl)oxy)-5-((2-(3-(dimethylamino)propyl)-2H-1,2,3-triazol-4-yl)amino)isothiazole-4-carboxamide] are 0.0187 µM, 0.0421 µM and 0.00817 µM.
For `NC(=O)c1c(OCc2ccc3ccoc3c2)nsc1NC(=O)NCCCCN1CCCC1` [Compound T054, 3-(benzofuran-6-ylmethoxy)-5-(3-(4-(pyrrolidin-1-yl)butyl)ureido)isothiazole-4-carboxamide], the concentration for half-maximal inhibition (IC50) on VEGFR3 came out at 0.0388 µM; on TIE2, 0.157 µM; at VEGFR1, 0.0343 µM; at VEGFR2 it was 0.0177 µM.
Take `CCNC(=O)c1cccc(COc2nsc(NC(=O)NCCCCN3CCCC3)c2C(N)=O)c1` [Compound T058, 3-((3-(ethylcarbamoyl)benzyl)oxy)-5-(3-(4-(pyrrolidin-1-yl)butyl)ureido)isothiazole-4-carboxamide]: the results for the concentration for half-maximal inhibition (IC50) at VEGFR1, at VEGFR2 and at EGFR were 0.03 µM, 0.0209 µM and over 60 µM, respectively. Also, the fraction unbound at 2 h, 2 μM with melanin was determined as 0.0225.
Consider `COc1cc(COc2nsc(NC(=O)NCCCCN3CCC(F)(F)C3)c2C(N)=O)cc(OC)c1` [Compound T063, 5-(3-(4-(3,3-difluoropyrrolidin-1-yl)butyl)ureido)-3-((3,5-dimethoxybenzyl)oxy)isothiazole-4-carboxamide], for which the IC50 is 0.0391 µM at VEGFR3, 1 µM on TIE2, 0.063 µM at VEGFR2 and over 60 µM at EGFR. The fraction unbound at 2 h, 2 μM in the data set with melanin turned out to be 0.0871.
With `NC(=O)c1c(OCc2cccc(C(=O)NC3CC3)c2)nsc1NC(=O)NCCN1CCCC1` [Compound T066, 3-((3-(cyclopropylcarbamoyl)benzyl)oxy)-5-(3-(2-(pyrrolidin-1-yl)ethyl)ureido)isothiazole-4-carboxamide], the IC50 at TIE2 is 10 µM; at VEGFR1, 0.0379 µM; on VEGFR2, 0.0778 µM; at EGFR it was over 60 µM.
For `CN1CCC(CCNC(=O)Nc2snc(OCc3ccc4c(c3F)OCC4)c2C(N)=O)CC1` [Compound T075, 3-((7-fluoro-2,3-dihydrobenzofuran-6-yl)methoxy)-5-(3-(2-(1-methylpiperidin-4-yl)ethyl)ureido)isothiazole-4-carboxamide], the IC50 on VEGFR3 turned out to be 0.0488 µM; at VEGFR1 it was 0.044 µM; at VEGFR2, 0.023 µM; at EGFR, 24.3 µM. Also, in the data set with melanin, the fraction unbound at 2 h, 2 μM came to 0.0391.
On the same counts, the results for `CCN1CCC(CCNC(=O)Nc2snc(OCc3ccc4c(c3)OCC4)c2C(N)=O)CC1` [Compound T076, 3-(2,3-dihydrobenzofuran-6-ylmethoxy)-5-[2-(1-ethyl-4-piperidyl)ethylcarbamoylamino]isothiazole-4-carboxamide] are 0.0238 µM, 0.0267 µM, 0.0126 µM, 43.6 µM and 0.0311.
On the same counts, the results for `CN1CCN(CCCNC(=O)Nc2snc(OCc3ccc4c(c3)OCC4)c2C(N)=O)CC1` [Compound T077, 3-(2,3-dihydrobenzofuran-6-ylmethoxy)-5-[3-(4-methylpiperazin-1-yl)propylcarbamoylamino]isothiazole-4-carboxamide] are 0.044 µM, 0.033 µM, 0.00701 µM, 52 µM and 0.0385.
With `NC(=O)c1c(OCc2cc3c(cc2F)CCO3)nsc1NC(=O)NCCCN1CC[C@@H](F)C1` [Compound T080, 3-[(5-fluoro-2,3-dihydrobenzofuran-6-yl)methoxy]-5-[3-[(3R)-3-fluoropyrrolidin-1-yl]propylcarbamoylamino]isothiazole-4-carboxamide], the IC50 at VEGFR3 stood at 0.0261 µM; on TIE2, 0.088 µM; on VEGFR1 it was 0.0135 µM; on EGFR, 8.05 µM. In the data set with melanin, the fraction unbound at 2 h, 2 μM turned out to be 0.0582.
For the compound `NC(=O)c1c(OCc2cc3c(cc2F)CCO3)nsc1NC(=O)NCCN1CC[C@@H](F)C1` [Compound T081, 3-[(5-fluoro-2,3-dihydrobenzofuran-6-yl)methoxy]-5-[2-[(3R)-3-fluoropyrrolidin-1-yl]ethylcarbamoylamino]isothiazole-4-carboxamide], the half-maximal inhibitory concentration (IC50) at VEGFR3 is 0.0239 µM; on VEGFR1 it was 0.0219 µM; at VEGFR2 it was 0.016 µM; at EGFR, 19.6 µM. Further, in the data set with melanin, the fraction unbound at 2 h, 2 μM was 0.0632.
Take `NC(=O)c1c(OCc2cc3c(cc2F)CCO3)nsc1NC(=O)NCCN1CCCCC1` [Compound T082, 3-[(5-fluoro-2,3-dihydrobenzofuran-6-yl)methoxy]-5-[2-(1-piperidyl)ethylcarbamoylamino]isothiazole-4-carboxamide]: the IC50 on VEGFR3 turned out to be 0.0485 µM; at TIE2, 0.203 µM; on VEGFR1, 0.0278 µM; at VEGFR2, 0.024 µM; at EGFR it was 15.5 µM. For the same compound, the fraction unbound at 2 h, 2 μM in the data set on melanin was found to be 0.0757.
For the compound `NC(=O)c1c(OCc2ccc3c(c2)OCC3)nsc1NC(=O)NCCC1CCN(CCF)CC1` [Compound T084, 3-(2,3-dihydrobenzofuran-6-ylmethoxy)-5-[2-[1-(2-fluoroethyl)-4-piperidyl]ethylcarbamoylamino]isothiazole-4-carboxamide], the IC50 was determined as 0.0371 µM at VEGFR3; 0.221 µM at TIE2; 0.0301 µM on VEGFR1; 0.0141 µM on VEGFR2; 15.8 µM on EGFR.
`COc1ccc(F)c(COc2nsc(NC(=O)NCCCN3CCN(C)CC3)c2C(N)=O)c1F` [Compound T107, 3-[(2,6-difluoro-3-methoxy-phenyl)methoxy]-5-[3-(4-methylpiperazin-1-yl)propylcarbamoylamino]isothiazole-4-carboxamide]: the half-inhibitory concentration (IC50) on TIE2 came to 0.124 µM; on VEGFR2, 0.00857 µM; on EGFR, 9.14 µM. Besides, in the data set with melanin, the fraction unbound at 2 h, 2 μM is 0.0403.
As to `COc1ccc(F)c(COc2nsc(NC(=O)NCCCN3CC[C@H](F)C3)c2C(N)=O)c1F` [Compound T120, 3-[(2,6-difluoro-3-methoxy-phenyl)methoxy]-5-[3-[(3S)-3-fluoropyrrolidin-1-yl]propylcarbamoylamino]isothiazole-4-carboxamide], the 50% inhibitory concentration (IC50) worked out at 0.397 µM on TIE2, 0.047 µM at VEGFR2 and 40.7 µM on EGFR. Further, the fraction unbound at 2 h, 2 μM in the data set on melanin stood at 0.0173.
On the same counts, the results for `COc1ccc(F)c(COc2nsc(NC(=O)NCCCCN3CCC(F)CC3)c2C(N)=O)c1F` [Compound T125, 3-[(2,6-difluoro-3-methoxy-phenyl)methoxy]-5-[4-(4-fluoro-1-piperidyl)butylcarbamoylamino]isothiazole-4-carboxamide] are 0.161 µM, 0.0135 µM, 9.71 µM and 0.0402.
For the compound `COc1ccc(F)c(COc2nsc(NC(=O)NCCCCN3CCC(F)(F)CC3)c2C(N)=O)c1F` [Compound T130, 3-[(2,6-difluoro-3-methoxy-phenyl)methoxy]-5-[4-(4,4-difluoro-1-piperidyl)butylcarbamoylamino]isothiazole-4-carboxamide], the IC50 was 0.471 µM on TIE2, 0.041 µM at VEGFR2 and 13.7 µM at EGFR. For the same compound, in the data set on melanin, the fraction unbound at 2 h, 2 μM was 0.0709.
Regarding `COc1ccc(F)c(COc2nsc(NC(=O)NCCCCN3CCOCC3)c2C(N)=O)c1F` [Compound T132, 3-[(2,6-difluoro-3-methoxy-phenyl)methoxy]-5-(4-morpholinobutylcarbamoylamino)isothiazole-4-carboxamide], the IC50 at TIE2 is 0.163 µM; at VEGFR2, 0.0147 µM; on EGFR, 19.2 µM. The fraction unbound at 2 h, 2 μM in the data set with melanin amounted to 0.0363.
Regarding `COc1cc(OC)c(F)c(COc2nsc(NC(=O)NCCCCN3CC[C@@H](O)C3)c2C(N)=O)c1F` [Compound T135, 3-[(2,6-difluoro-3,5-dimethoxy-phenyl)methoxy]-5-[4-[(3R)-3-hydroxypyrrolidin-1-yl]butylcarbamoylamino]isothiazole-4-carboxamide], the figures for the IC50 at TIE2, on VEGFR2 and at EGFR were 0.097 µM, 0.0019 µM and over 60 µM, respectively. Moreover, the fraction unbound at 2 h, 2 μM in the data set with melanin turned out to be 0.02.

In general, IC50 refers to the concentration that gives 50% inhibition.

For the origin of these results see patent US20260217698A1 (BEYANG THERAPEUTICS CO., LTD., priority 2022, published 2026).
